From patent US6958357B2, “Substituted benzimidazoles, processes for their preparation, their use as medicaments, and medicaments comprising them” (Aventis Pharma Deutschland GmbH, priority 2000, dated 2005)
Where “and” joins values, the source holds several entries; their conditions need not be identical. Identical values can stand only once. Counter-ions that a name gives are not always drawn.

Target: rNHE3 (Rattus norvegicus, UniProt P26433)
Assay: recovery of the intracellular pH (pHi) after acidification, BCECF fluorescence, NHE inhibition
Format: cell-based
Conditions: pH recovery recorded for three minutes in the case of NHE3; bicarbonate-free conditions
Protocol: In this test, the recovery of the intracellular pH (pHi) after an acidification was determined which commences with functional NHE even under bicarbonate-free conditions. For this, the pHi was determined using the pH-sensitive fluorescent dye BCECF (Calbiochem, the precursor BCECF-AM was employed). The cells were first loaded with BCECF. The BCECF fluorescence was determined in a “Ratio Fluorescence Spectrometer” (Photon Technology International, South Brunswick, N.J., USA) at excitation wavelengths of 505 and 440 nm and an emission wavelength of 535 nm and converted into the pHi by means of calibration curves. The cells were incubated in NH4Cl buffer (pH 7.4) even in the case of BCECF loading (NH4Cl buffer: 115 mM NaCl, 20 mM NH4Cl, 5 mM KCl, 1 mM CaCl2, 1 mM MgSO4, 20 mM Hepes, 5 mM glucose, 1 mg/ml of BSA; a pH of 7.4 is set using 1 M NaOH). The intracellular acidification was induced by addition of 975 μl of an NH4Cl-free buffer (see below) to 25 μl aliquots of the cells incubated in NH4Cl buffer. The subsequent rate of pH recovery was recorded for two minutes in the case of NHE1, for five minutes in the case of NHE2, and for three minutes in the case of NHE3. For the calculation of the inhibitory potency of the substances tested, the cells were first investigated in buffers in which a complete pH recovery or no pH recovery at all took place. For the complete pH recovery (100%), the cells were incubated in Na+-containing buffer (133.8 mM NaCl, 4.7 mM KCl, 1.25 mM CaCl2, 1.25 mM MgCl2, 0.97 mM […], 0.23 mM […], 5 mM Hepes, 5 mM glucose; a pH of 7.0 is set using 1 M NaOH). For the determination of the 0% value, the cells were incubated in an Na+-free buffer (133.8 mM choline chloride, 4.7 mM KCl, 1.25 mM CaCl2, 1.25 mM MgCl2, 0.97 mM K2HPO4, 0.23 mM KH2PO4, 5 mM Hepes, 5 mM glucose; a pH of 7.0 is set using 1 M NaOH). The substances to be tested were applied in the Na+-containing buffer. The recovery of the intracellular pH at each tested concentration of a substance was expressed in percent of the maximum recovery. The IC value of the respective substance for the individual NHE subtypes was calculated from the percentage values of the pH recovery by means of the program Sigma-Plot.

rNHE3, sequence (P26433 29-831): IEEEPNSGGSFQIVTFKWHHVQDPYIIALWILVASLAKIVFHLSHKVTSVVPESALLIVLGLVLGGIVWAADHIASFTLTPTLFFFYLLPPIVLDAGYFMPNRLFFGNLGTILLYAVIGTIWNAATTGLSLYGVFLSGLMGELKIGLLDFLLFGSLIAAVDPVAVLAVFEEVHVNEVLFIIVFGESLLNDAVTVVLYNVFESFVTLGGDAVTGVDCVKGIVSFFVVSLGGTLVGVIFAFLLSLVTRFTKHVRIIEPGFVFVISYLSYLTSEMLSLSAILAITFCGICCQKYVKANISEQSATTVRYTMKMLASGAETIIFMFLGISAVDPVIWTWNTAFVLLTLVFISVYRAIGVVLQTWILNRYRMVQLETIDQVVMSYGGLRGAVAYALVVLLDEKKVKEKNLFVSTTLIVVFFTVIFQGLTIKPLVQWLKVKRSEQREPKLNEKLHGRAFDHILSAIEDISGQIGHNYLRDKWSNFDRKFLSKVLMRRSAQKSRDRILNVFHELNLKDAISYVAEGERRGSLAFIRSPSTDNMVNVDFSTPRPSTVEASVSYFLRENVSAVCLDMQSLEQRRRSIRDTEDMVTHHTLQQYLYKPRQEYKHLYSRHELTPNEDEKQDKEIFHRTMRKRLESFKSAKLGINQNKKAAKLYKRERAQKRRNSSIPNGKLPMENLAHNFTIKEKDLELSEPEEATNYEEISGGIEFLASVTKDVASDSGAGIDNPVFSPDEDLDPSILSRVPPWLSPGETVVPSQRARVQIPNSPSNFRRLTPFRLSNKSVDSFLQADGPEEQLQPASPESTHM

Q: Which IC50 does the source give for `Cl.Fc1cccc2nc(Nc3c(Cl)cccc3Cl)[nH]c12` [Example 10, 2-(2,6-Dichlorophenylamino)-4-fluorobenzimidazole hydrochloride] here?
A: Its IC50 is 3.2 µM.

Q: Which IC50 does the source give for `Cc1cccc2[nH]c(Nc3c(Cl)cccc3Cl)nc12` [Example 6, (2,6-Dichlorophenyl)-(4-methyl-1H-benzimidazol-2-yl)amine trifluoracetate] here?
A: Its IC50 is 0.39 µM.

Q: With `Brc1cccc(Br)c1Nc1nc2ccccc2[nH]1` [Example 8, (1H-Benzimidazol-2-yl)-(2,6-dibromophenyl)amine trifluoroacetate] as the molecule, how does the IC50 read?
A: Its IC50 is 0.65 µM.

Q: For `Cc1cccc(Cl)c1Nc1nc2ccccc2[nH]1` [Example 4, (1H-Benzimidazol-2-yl)-(2-chloro-6-methylphenyl)amine hydrochloride], which IC50 is on record?
A: Its IC50 is 0.49 µM.

Q: With `Fc1cccc(Cl)c1Nc1nc2ccccc2[nH]1` [Example 7, (1H-Benzimidazol-2-yl)-(2-chloro-6-fluorophenyl)amine hydrochloride] as the molecule, how does the IC50 read?
A: Its IC50 is 0.52 µM.

Q: For `FC(F)(F)c1cccc(Cl)c1Nc1nc2ccccc2[nH]1` [Example 11, 2-(2-Trifluoromethyl-6-chlorophenylamino)benzimidazole hydrochloride], which IC50 is on record?
A: The IC50 was 0.83 µM.

Q: With `Cl.Fc1cc(F)c2[nH]c(Nc3c(Cl)cccc3Cl)nc2c1` [Example 15, 2-(2,6-Dichlorophenylamino)-4,6-difluorobenzimidazole hydrochloride] as the molecule, how does the IC50 read?
A: Its IC50 is 1.6 µM.

Q: Which IC50 does the source give for `Brc1ccccc1Nc1nc2ccccc2[nH]1` [Example 18, (1H-Benzimidazol-2-yl)-(2-bromophenyl)amine trifluoroacetate] here?
A: The IC50 was 1.2 µM.

Q: For `Fc1cc2nc(Nc3c(Cl)cccc3Cl)[nH]c2cc1F` [Example 5, (2,6-Dichlorophenyl)-(5,6-difluoro-1H-benzimidazol-2-yl)amine hydrochloride], which IC50 is on record?
A: Its IC50 is 0.78 µM.

Q: With `Cc1ccccc1Nc1nc2ccccc2[nH]1` [Example 19, (1H-Benzimidazol-2-yl)-o-tolylamine hydrochloride] as the molecule, how does the IC50 read?
A: Its IC50 is 3.5 µM.

Q: Which IC50 does the source give for `Cl.Oc1cccc2[nH]c(Nc3c(Cl)cccc3Cl)nc12` [Example 2, 2-(2,6-Dichlorophenylamino)-1H-benzimidazol-4-ol Hydrochloride] here?
A: Its IC50 is 0.47 µM.

Q: For `Fc1c(F)c(F)c2[nH]c(Nc3c(Cl)cccc3Cl)nc2c1F` [Example 14, 2-(2,6-Dichlorophenylamino)-4,5,6,7-tetrafluorobenzimidazole hydrochloride], which IC50 is on record?
A: Its IC50 is 5.6 µM.

Q: Which IC50 does the source give for `Clc1ccccc1Nc1nc2ccccc2[nH]1` [Example 16, (1H-Benzimidazol-2-yl)-(2-chlorophenyl)amine trifluoroacetate] here?
A: Its IC50 is 0.63 µM.

Q: Which IC50 does the source give for `Clc1cccc(Cl)c1Nc1nc2ccccc2[nH]1` [Example 1, (1H-Benzimidazol-2-yl)-(2,6-dichlorophenyl)amine hydrochloride] here?
A: Its IC50 is 0.53 µM.

Q: With `Fc1ccc2[nH]c(Nc3c(Cl)cccc3Cl)nc2c1` [Example 9, 2-(2,6-Dichlorophenylamino)-5-fluorobenzimidazole hydrochloride] as the molecule, how does the IC50 read?
A: Its IC50 is 1 µM.

Q: For `Oc1ccc2[nH]c(Nc3c(Cl)cccc3Cl)nc2c1` [Example 13, 2-(2,6-Dichlorophenylamino)-5-hydroxybenzimidazole hydrobromide], which IC50 is on record?
A: The IC50 was 1.1 µM.

Q: For `Cl.Fc1ccc2nc(Nc3c(Cl)cccc3Cl)[nH]c2c1F` [Example 12, 2-(2,6-Dichlorophenylamino)-4,5-difluorobenzimidazole hydrochloride], which IC50 is on record?
A: The IC50 was 2.9 µM.

Q: Which IC50 does the source give for `FC(F)(F)c1ccccc1Nc1nc2ccccc2[nH]1` [Example 17, (1H-Benzimidazol-2-yl)-(2-trifluoromethylphenyl)amine trifluoroacetate] here?
A: Its IC50 is 3.5 µM.

Q: With `Cc1cccc(C)c1Nc1nc2ccccc2[nH]1` [Example 3, (1H-Benzimidazol-2-yl)-(2,6-dimethylphenyl)amine trifluoracetate] as the molecule, how does the IC50 read?
A: The IC50 was 0.64 µM.

System: not given
Assay: not given
Conditions: not given

Q: With `Cl.Fc1cccc2nc(Nc3c(Cl)cccc3Cl)[nH]c12` [Example 10, 2-(2,6-Dichlorophenylamino)-4-fluorobenzimidazole hydrochloride] as the molecule, how does the melting point read?
A: Its melting point is 268 to 296 °C.

Q: With `Oc1ccc2[nH]c(Nc3c(Cl)cccc3Cl)nc2c1` (as salt: hydrobromid) [Example 13, 2-(2,6-Dichlorophenylamino)-5-hydroxybenzimidazole hydrobromide] as the molecule, how does the melting point read?
A: Its melting point is 265 to 269 °C.

Q: Which melting point does the source give for `Cl.Fc1cc(F)c2[nH]c(Nc3c(Cl)cccc3Cl)nc2c1` [Example 15, 2-(2,6-Dichlorophenylamino)-4,6-difluorobenzimidazole hydrochloride] here?
A: The melting point was 310 to 314 °C.

Q: For `Cl.Oc1cccc2[nH]c(Nc3c(Cl)cccc3Cl)nc12` [Example 2, 2-(2,6-Dichlorophenylamino)-1H-benzimidazol-4-ol Hydrochloride], which melting point is on record?
A: The melting point was 333 to 335 °C.

Q: For `Fc1ccc2[nH]c(Nc3c(Cl)cccc3Cl)nc2c1` (as salt: hydrochloride) [Example 9, 2-(2,6-Dichlorophenylamino)-5-fluorobenzimidazole hydrochloride], which melting point is on record?
A: Its melting point is 294 to 296 °C.

Q: With `FC(F)(F)c1cccc(Cl)c1Nc1nc2ccccc2[nH]1` (as salt: hydrochloride) [Example 11, 2-(2-Trifluoromethyl-6-chlorophenylamino)benzimidazole hydrochloride] as the molecule, how does the melting point read?
A: The melting point was 255 to 288 °C.

Q: Which melting point does the source give for `Cl.Fc1ccc2nc(Nc3c(Cl)cccc3Cl)[nH]c2c1F` [Example 12, 2-(2,6-Dichlorophenylamino)-4,5-difluorobenzimidazole hydrochloride] here?
A: The melting point was 232 to 234 °C and 228 to 230 °C.

Q: Which melting point does the source give for `Fc1c(F)c(F)c2[nH]c(Nc3c(Cl)cccc3Cl)nc2c1F` (as salt: hydrochloride) [Example 14, 2-(2,6-Dichlorophenylamino)-4,5,6,7-tetrafluorobenzimidazole hydrochloride] here?
A: Its melting point is 220 to 222 °C.
